Reference: doi:10.1101/2023.11.15.567208 (bioRxiv, 2024)

Legend:
[1] = molecular target: T1, CGRP receptor (Calcrl and Ramp1) (Mus musculus, UniProt Q9R1W5+Q9WTJ5); experiment: CGRP-sniffer HEK293 cells, calcium (GCaMP6s) dose-response; assay type: cell-based; settings: selectivity control; HEK293 expressing Calcrl, Ramp1, GCaMP6s and Gα15
T1 construct: expressed in transfected cells; host or cells: HEK293; Calcrl/Gα15/GCaMP6s by PiggyBac transposase (puromycin), Ramp1 by pSBbi-Neo-cmv-TETo2-RAMP1 IRES-mTagBFP2-NLS (geneticin); doxycycline-induced
Source text: The copyright holder for this preprint
(1 picture or pasted object on this page, not shown here)

[2] = molecular target: T2, Substance P receptor (NKR1) (Mus musculus, UniProt P30548); experiment: Co-culture of DRG neurons with Substance P-sniffer cells, capsaicin-evoked Substance P release; assay type: cell-based; settings: exogenous Substance P (10 nM); co-culture with WT or DKO DRG
T2 construct: T2A self-cleaving peptide remnant (from the polycistronic P2A-TACR1-T2A cassette) (C); expressed in transfected cells; host or cells: Flp-In T-REx HEK293 (Thermo Fisher Scientific, R78007), lentiviral transduction, hygromycin selection

[3] = ref Hylden and Wilcox, 1981, Malick and Goldstein, 1978, cited from earlier work
Source text: Alternatively, neuropeptides may have opposing effects in different parts of the circuitry meaning global loss of the gene may produce a net effect of no change in a particular behavior.

[4] = ref von Euler and Gaddum, 1931 (Substance P); Amara et al., 1982 (CGRPα); cited from earlier work
Source text: Among the most challenging diseases to treat is chronic pain. With over 20% of the population suffering from chronic pain, we urgently need to find new analgesic targets ([Nahin et al., 2023]).

T1 sequence (Q9R1W5 23-463): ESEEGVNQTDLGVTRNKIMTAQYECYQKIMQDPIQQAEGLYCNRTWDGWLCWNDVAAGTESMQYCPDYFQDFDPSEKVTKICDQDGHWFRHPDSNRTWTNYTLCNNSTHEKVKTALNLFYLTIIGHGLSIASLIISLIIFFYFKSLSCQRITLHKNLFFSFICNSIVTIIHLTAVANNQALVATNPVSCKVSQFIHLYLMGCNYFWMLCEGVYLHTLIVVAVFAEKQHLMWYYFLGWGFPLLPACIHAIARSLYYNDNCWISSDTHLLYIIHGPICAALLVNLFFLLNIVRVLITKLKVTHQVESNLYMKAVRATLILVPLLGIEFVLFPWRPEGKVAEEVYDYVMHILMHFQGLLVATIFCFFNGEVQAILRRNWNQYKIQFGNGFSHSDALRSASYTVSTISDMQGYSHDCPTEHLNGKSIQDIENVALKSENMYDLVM
T1 sequence (Q9WTJ5 27-148): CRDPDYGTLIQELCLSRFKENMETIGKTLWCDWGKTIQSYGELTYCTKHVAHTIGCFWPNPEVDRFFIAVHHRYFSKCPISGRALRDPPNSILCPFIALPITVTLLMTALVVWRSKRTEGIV
T2 sequence (P30548 whole entry): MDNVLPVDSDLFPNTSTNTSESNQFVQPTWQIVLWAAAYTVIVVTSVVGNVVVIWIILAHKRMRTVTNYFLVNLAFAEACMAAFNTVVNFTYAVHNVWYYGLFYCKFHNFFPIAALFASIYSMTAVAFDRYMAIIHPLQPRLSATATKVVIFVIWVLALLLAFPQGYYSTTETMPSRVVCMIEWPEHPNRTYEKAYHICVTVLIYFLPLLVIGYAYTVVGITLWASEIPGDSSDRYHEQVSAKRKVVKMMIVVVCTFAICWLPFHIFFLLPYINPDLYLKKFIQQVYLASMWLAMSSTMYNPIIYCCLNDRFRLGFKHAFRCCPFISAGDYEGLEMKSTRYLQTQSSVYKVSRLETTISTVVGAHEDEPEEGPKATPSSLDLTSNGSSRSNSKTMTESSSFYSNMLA

Which results are given for “Substance P: 11-amino acid peptide first discovered as a tissue extract with contractile activity”?
Sensitivity of CGRP-sniffer cells [1]: insensitive; Substance P-sniffer activation by exogenous peptide [2]: activates Substance P-sniffers in both conditions; Effect in the brain ([3]; in the brain): analgesic; Effect of infusion into the spinal cord ([3]; infusion into the spinal cord): elicits pain; Contractile or vasodilator activity [4]: contractile activity
